ChEMBL document CHEMBL3885861, “Open TG-GATES”

Species: Rattus norvegicus
Assay: Open TG-GATES - Regimen: Daily Repeat
Type: toxicity, organism-based, Sprague-Dawley
Set-up: regimen Daily Repeat, gender Male, age 6 weeks
Conditions: in vivo, iv, 0 mg/kg, route intravenous injection, dose level Control; for APTT / Bas / Eos / Fbg / Hb / Ht / Lym / MCH / MCHC / MCV / Mono / Neu / PT / Plat / RBC / Ret / WBC: tissue Blood
[1] = 72 h, tissue Kidney, time 3 day
[2] = 72 h, tissue Plasma, time 3 day

`C[C@@H]1[C@H](O)[C@@H](C)/C=C/C=C/C=C/C=C/C=C/C=C/C=C/[C@H](O[C@@H]2O[C@H](C)[C@@H](O)[C@H](N)[C@@H]2O)C[C@@H]2O[C@](O)(C[C@@H](O)C[C@@H](O)[C@H](O)CC[C@@H](O)C[C@@H](O)CC(=O)O[C@H]1C)C[C@H](O)[C@H]2C(=O)O` [AMPHOTERICIN B] showed a TERMINAL_BW (72 h, time 3 day) of 239.8 g, an APTT (72 h, time 3 day) of 16.6 s and a Bas (72 h, time 3 day) of 0%. It also gave an Eos (72 h, time 3 day) of 1%, a Fbg (72 h, time 3 day) of 293.6 mg/dL and a Hb (72 h, time 3 day) of 13.7 g/dL. For the same compound, the Ht (72 h, time 3 day) was 40.1%, the Lym (72 h, time 3 day) was 75.8% and the MCH (72 h, time 3 day) was 20.5 pg. It also gave an MCHC (72 h, time 3 day) of 34.2%, an MCV (72 h, time 3 day) of 60 fL and a Mono (72 h, time 3 day) of 2.2%. It also gave a Neu (72 h, time 3 day) of 19.8%, a PT (72 h, time 3 day) of 12.6 s and a Plat (72 h, time 3 day) of 145.3 x10_4/uL. For the same compound, the RBC (72 h, time 3 day) was 668.2 x10_4/ul, the Ret (72 h, time 3 day) was 4.9% and the WBC (72 h, time 3 day) was 97.1 x10_2/uL. The KIDNEY_L [1] was 1 g, the KIDNEY_R [1] was 1 g and the KIDNEY_TOTAL [1] was 2 g. For the same compound, the LIVER (72 h, tissue Liver, time 3 day) was 11.5 g, the A/G [2] was 0.8 and the ALP [2] was 1512.4 IU/L. For the same compound, the ALT [2] was 38.6 IU/L, the AST [2] was 66.2 IU/L and the BUN [2] was 16.6 mg/dL. For the same compound, the CRE [2] was 0.2 mg/dL, the Ca [2] was 11 mg/dL and the Cl [2] was 105.4 meq/L. It also gave a DBIL [2] of 0.02 mg/dL, a GLC [2] of 175.4 mg/dL and an IP [2] of 7.3 mg/dL. For the same compound, the K [2] was 4.1 meq/L, the LDH [2] was 58.6 IU/L and the Na [2] was 142.8 meq/L. It also gave a PL [2] of 140.6 mg/dL, an RALB [2] of 2.7 g/dL and a TBIL [2] of 0.046 mg/dL. It also gave a TC [2] of 73.6 mg/dL, a TG [2] of 110.8 mg/dL and a TP [2] of 6 g/dL. It also gave a gamma-GTP [2] of 1.2 IU/L, a TERMINAL_BW ([…], time 7 day) of 275.6 g and a TERMINAL_BW ([…], time 14 day) of 324.6 g. The TERMINAL_BW ([…], time 28 day) was 391.3 g, the APTT ([…], time 7 day) was 17.5 s and the Bas ([…], time 7 day) was 0%. For the same compound, the Eos ([…], time 7 day) was 1%, the Fbg ([…], time 7 day) was 264.4 mg/dL and the Hb ([…], time 7 day) was 13.4 g/dL. It also gave a Ht ([…], time 7 day) of 38.9%, a Lym ([…], time 7 day) of 79.8% and an MCH ([…], time 7 day) of 20.7 pg. It also gave an MCHC ([…], time 7 day) of 34.4%, an MCV ([…], time 7 day) of 60 fL and a Mono ([…], time 7 day) of 2.2%. The Neu ([…], time 7 day) was 16%, the PT ([…], time 7 day) was 12.3 s and the Plat ([…], time 7 day) was 122.6 x10_4/uL. It also gave an RBC ([…], time 7 day) of 648.2 x10_4/ul, a Ret ([…], time 7 day) of 4.7% and a WBC ([…], time 7 day) of 102.1 x10_2/uL. It also gave an APTT ([…], time 14 day) of 16.3 s, a Bas ([…], time 14 day) of 1% and an Eos ([…], time 14 day) of 1%. For the same compound, the Fbg ([…], time 14 day) was 280.6 mg/dL, the Hb ([…], time 14 day) was 14.6 g/dL and the Ht ([…], time 14 day) was 41.3%. For the same compound, the Lym ([…], time 14 day) was 80%, the MCH ([…], time 14 day) was 20.5 pg and the MCHC ([…], time 14 day) was 35.4%. It also gave an MCV ([…], time 14 day) of 57.8 fL, a Mono ([…], time 14 day) of 2.4% and a Neu ([…], time 14 day) of 15.6%. The PT ([…], time 14 day) was 12.3 s, the Plat ([…], time 14 day) was 129.9 x10_4/uL and the RBC ([…], time 14 day) was 716.4 x10_4/ul. For the same compound, the Ret ([…], time 14 day) was 4%, the WBC ([…], time 14 day) was 134.6 x10_2/uL and the APTT ([…], time 28 day) was 19.2 s. The Bas ([…], time 28 day) was 0.4%, the Eos ([…], time 28 day) was 1% and the Fbg ([…], time 28 day) was 260.4 mg/dL. It also gave a Hb ([…], time 28 day) of 15.3 g/dL and a Ht ([…], time 28 day) of 43.7%.
